Experiments:
ROMK (Kir1.1) channel = biological target: T1, ROMK (Kir1.1) channel (Homo sapiens, UniProt P48048); assay: Thallium Flux Assay; type: cell-based
T1 sequence (P48048 1-391): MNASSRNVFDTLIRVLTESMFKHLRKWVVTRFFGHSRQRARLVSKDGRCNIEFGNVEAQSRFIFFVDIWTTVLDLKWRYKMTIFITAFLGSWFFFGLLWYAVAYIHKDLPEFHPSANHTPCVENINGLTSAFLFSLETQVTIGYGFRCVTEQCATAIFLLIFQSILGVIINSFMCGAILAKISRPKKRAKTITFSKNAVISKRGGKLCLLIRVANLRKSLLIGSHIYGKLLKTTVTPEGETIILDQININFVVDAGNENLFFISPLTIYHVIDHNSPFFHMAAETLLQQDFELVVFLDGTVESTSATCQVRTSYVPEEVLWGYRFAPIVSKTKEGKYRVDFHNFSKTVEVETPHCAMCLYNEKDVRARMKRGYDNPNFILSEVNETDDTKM
Method: A Thallium Flux Assay was performed on the compounds of the Examples. This assay has been described previously; see, e.g., PCT Published Application WO 2013/062900.

Kir1.1 (ROMK1) = biological target: T2, Kir1.1 (ROMK1) (Homo sapiens, UniProt P48048); assay: Electrophysiology Assay (whole cell voltage clamp, IonWorks Quattro); type: cell-based; settings: Chinese hamster ovary cells stably expressing Kir1.1; fractional block at voltage step to 0 mV; 6 min compound incubation
T2 construct: expressed in transfected cells
T2 sequence (P48048 1-391): T1 sequence (P48048 1-391)
Method: Blocking of Kir1.1 (ROMK1) currents was examined by whole cell voltage clamp (Hamill et. al. Pfluegers Archives 391:85-100 (1981) using the IonWorks Quattro automated electrophysiology platform (Molecular Devices, Sunnyvale, Calif.). Chinese hamster ovary cells stably expressing Kir1.1 channels were maintained in T-75 flasks in cell culture media in a humidified 10% CO2 incubator at 37° C. Prior to an experiment, Kir1.1 expression was induced by overnight incubation with 1 mM sodium butyrate. On the day of the experiment, cells were dissociated with 2.5 mL of Versene (Invitrogen 15040-066), a non-enzymatic cell dissociation reagent, for approximately 6 min at 37° C. and suspended in 10 mL of bath solution containing (in mM): 150 NaCl, 10 KCl, 2.7 CaCl2, 0.5 MgCl2, and 5 HEPES, at pH 7.4. After centrifugation, the cell pellet was resuspended in approximately 4.0 mL of bath solution and placed in the IonWorks instrument. The intracellular solution consisted of (in mM): 80 K gluconate, 40 KCl, 20 KF, 3.2 MgCl2, 3 EGTA, and 5 Hepes, at pH 7.4. Electrical access to the cytoplasm was achieved by perforation in 0.13 mg/mL amphotericin B for 4 min. Amphotericin B (Sigma A-4888) was prepared as a 40 mg/mL solution in DMSO.
Voltage protocols and current recordings were performed using the IonWorks HT software/hardware system. Currents were sampled at 1 kHz. There was no correction for liquid junction potentials. The test pulse, consisting of a 100 ms (millisecond) step to 0 mV (millivolts) from a holding potential of −70 mV, followed by a 100 ms voltage ramp from −70 mV to +70 mV, was applied before and after a 6 min compound incubation period. Test compounds were prepared by diluting DMSO stock solutions into the bath solution at 3× the final concentration and placed in the instrument in 96-well polypropylene plates. Current amplitudes were measured using the IonWorks software. To assess compound potency, the fractional block during the voltage step to 0 mV was calculated in Microsoft Excel (Microsoft, Redmond, Calif.), and dose-response curves were fitted with Igor Pro 4.0 (WaveMetrics, Lake Oswego, Oreg.). Although not required, a control compound is typically included to support that the assay is giving consistent results compared to previous measurements.

Row | Structure (SMILES) | IC50 (ROMK (Kir1.1) channel) [nM] | IC50 (Kir1.1 (ROMK1)) [nM]
1 | CC1=C(N2NCC3(CCN(C[C@H](O)c4ccc5c(c4C)COC5=O)CC3)C2=O)COC1=O [Example 1, (R)-8-(2-hydroxy-2-(4-methyl-1-oxo-1,3-dihydroisobenzofuran-5-yl)ethyl)-2-(4-methyl-5-oxo-2,5-dihydrofuran-3-yl)-2,3,8-triazaspiro[4.5]decan-1-one] | 68.4 | 33
2 | CC1=C(N2NCC3(CCN(C[C@H](O)c4ccc(-n5cnnn5)nc4)CC3)C2=O)COC1=O [Example 2A, (R)-8-(2-(6-(1H-tetrazol-1-yl)pyridin-3-yl)-2-hydroxyethyl)-2-(4-methyl-5-oxo-2,5-dihydrofuran-3-yl)-2,3,8-triazaspiro[4.5]decan-1-one] | 36.5 | 53
3 | CC1=C(N2N=CC3(CCN(C[C@H](O)c4ccc(-n5cnnn5)nc4)CC3)C2=O)COC1=O [Example 3A, (R)-8-(2-(6-(1H-tetrazol-1-yl)pyridin-3-yl)-2-hydroxyethyl)-2-(4-methyl-5-oxo-2,5-dihydrofuran-3-yl)-2,3,8-triazaspiro[4.5]dec-3-en-1-one] | 54.9 | 17
4 | CC1=C(N2N=CC3(CCN(CCc4ccc(-n5cnnn5)nn4)CC3)C2=O)COC1=O [Example 5, 8-(2-(6-(1H-tetrazol-1-yl)pyridazin-3-yl)ethyl)-2-(4-methyl-5-oxo-2,5-dihydrofuran-3-yl)-2,3,8-triazaspiro[4.5]dec-3-en-1-one] | 45.8 | –
5 | CC1=C(N2N=CC3(CCN(C[C@@H](O)c4ccc(-n5cnnn5)nc4)CC3)C2=O)COC1=O [Example 3B, (S)-8-(2-(6-(1H-tetrazol-1-yl)pyridin-3-yl)-2-hydroxyethyl)-2-(4-methyl-5-oxo-2,5-dihydrofuran-3-yl)-2,3,8-triazaspiro[4.5]dec-3-en-1-one] | 57.1 | –
6 | CC1=C(N2NCC3(CCN(C[C@@H](O)c4ccc(-n5cnnn5)nc4)CC3)C2=O)COC1=O [Example 2B, (S)-8-(2-(6-(1H-tetrazol-1-yl)pyridin-3-yl)-2-hydroxyethyl)-2-(4-methyl-5-oxo-2,5-dihydrofuran-3-yl)-2,3,8-triazaspiro[4.5]decan-1-one] | 57.8 | 33
7 | CC1=C(N2N=CC3(CCN(CC(O)c4ccc(-n5cnnn5)nn4)CC3)C2=O)COC1=O (single isomer, unassigned) [Example 4A, 8-(2-(6-(1H-tetrazol-1-yl)pyridazin-3-yl)-2-hydroxyethyl)-2-(4-methyl-5-oxo-2,5-dihydrofuran-3-yl)-2,3,8-triazaspiro[4.5]dec-3-en-1-one] | 267 | –

Source: US9862720B2, “Inhibitors of the renal outer medullary potassium channel” (Merck Sharp & Dohme Corp., priority 2014, dated 2018)
